Measurements as given in US20250380697A1, “ISOXAZOLINE DERIVATIVE COMPOUND AND INSECTICIDAL COMPOSITION COMPRISING SAME” (KYUNG NONG CORPORATION, priority 2022, published 2025).

Tests used:
Format in all cases: in vivo
[1] = test system: Frankliniella occidentalis; experiment: Pesticidal activity against Frankliniella occidentalis, spray method; settings: 48 h, read-out: mortality rate, Frankliniella occidentalis
From the text: A water-soaked filter paper (9.0 cm in diameter) was placed in an insect breeding dish (Lab Guide®) with a diameter of 9.0 cm and a height of 4.0 cm, and then parafilm (width 4.0 cm×height 4.0 cm) was placed thereon. Before treating with a pesticide composition, 10 adult Frankliniella occidentalis were inoculated per petri dish using a No. 4 brush. In this case, Frankliniella occidentalis adults used were those purchased from the Bio Utilization Institute (Andong, Korea). Then, each of the pesticide compositions prepared in Examples (a diluted solution in which each of the compounds of Synthesis Examples (concentration: 100 ppm) was diluted; the solvent=distilled water+acetone 50,000 mg/L+Triton X-100 100 mg/L) was loaded into a 100 mL small sprayer, and sprayed 10-12 times at a distance of 30 cm and a height of 50 cm, and one cotyledons of soybean, which is a host plant, were added one at a time. Then, the Frankliniella occidentalis adults were stored under the conditions of 16 hours of light and 8 hours of darkness, 25±1° C., and relative humidity of 50-60%, and the number of live Frankliniella occidentalis adults was counted 48 hours after the inoculation. Thereafter, the larvae mortality rate was calculated in the same manner as in Test Example 1 above.

Phaedon brassicae = experiment: Pesticidal activity against Phaedon brassicae, leaf-dipping method; settings: counted 24, 48, 72 hours, time not given, read-out: mortality rate, Phaedon brassicae
Description: Cabbage (Daiya) leaves were cut into pieces with a diameter of 5.8 cm, dipped in the pesticide composition where the compound of Synthesis Example 2 was diluted (the solvent=distilled water+acetone 50,000 mg/L+Triton X-100 100 mg/L) for 30 seconds, and sufficiently shade-dried. Then, the shade-dried cabbage leaves were is placed in a petri dish (8.8 cm in diameter) covered with filter paper and repeatedly inoculated 3-5 times with the larvae of Phaedon brassicae, 10 larvae per inoculation. In particular, the Phaedon brassicae larvae used were those which were bred in the Andong National University (Korea) for multiple generations.
After the inoculation, the Phaedon brassicae larvae were stored under the conditions of 16 hours of light and 8 hours of dark, 25±1° C. and 50-60% relative humidity, and the number of live Phaedon brassicae larvae was counted 24, 48, and 72 hours after the inoculation. Thereafter, the larvae mortality rate was calculated in the same manner as in Test Example 1 above.

Thrips tabaci Lindeman = experiment: Pesticidal activity against Thrips tabaci Lindeman, spray method; settings: adults, counted 24 and 48 hours, time not given, read-out: mortality rate, Thrips tabaci Lindeman
From the text: A water-soaked filter paper (9.0 cm in diameter) was placed in an insect breeding dish (Lab Guide®) with a diameter of 9.0 cm and a height of 4.0 cm, and then parafilm (width 4.0 cm×height 4.0 cm) was placed thereon. Before being treated with a pesticide composition, 10 adult Thrips tabaci Lindeman were inoculated per petri dish using a No. 4 brush. In this case, Thrips tabaci Lindeman adults used were those collected in a place near the Andong National University (Korea) and bred for multiple generations. Then, the pesticide composition where the compound of Synthesis Example 2 was diluted (the solvent=distilled water+acetone 50,000 mg/L+Triton X-100 100 mg/L) was loaded into a 100 mL small sprayer, and sprayed 10-12 times at a distance of 30 cm and a height of 50 cm, and one cotyledons of soybean, which is a host plant, were added one at a time. Then, the Thrips tabaci Lindeman adults were stored under the conditions of 16 hours of light and 8 hours of darkness, 25±1° C., and relative humidity of 50-60%, and the number of live Thrips tabaci Lindeman adults was counted 24, and 48 hours after the inoculation. Thereafter, the larvae mortality rate was calculated in the same manner as in Test Example 1 above.

Compound: CCN1OC[C@@H](NC(=O)c2ccc(C3=NO[C@@](c4cc(Cl)c(F)c(Cl)c4)(C(F)(F)F)C3)cc2C)C1=O [Comparative Example 3, isocycloseram]
- mortality at 5 ppm [1]: 100%
- mortality at 10 ppm [1]: 100%
- mortality at 1 ppm (Phaedon brassicae; 1 ppm): 100%
- mortality at 3 ppm (Phaedon brassicae; 3 ppm): 100%
- mortality at 10 ppm (Phaedon brassicae; 10 ppm): 100%
- mortality at 1 ppm (Thrips tabaci Lindeman; 1 ppm): 66%
- mortality at 3 ppm (Thrips tabaci Lindeman; 3 ppm): 76%
- mortality at 10 ppm (Thrips tabaci Lindeman; 10 ppm): 90%
